pEC50, pIC50, pKi: −log10 of the molar value. Each block holds one compound with its values, some of them ahead of it.
Legend:
Histone deacetylase 3 = Histone deacetylase 3 (Homo sapiens, UniProt O15379); assay: Inhibition of HDAC3 (unknown origin)
[1] = molecular target: T1, Envelope glycoprotein gp160 (Human immunodeficiency virus 1, UniProt Q6QLK5); assay: Inhibition of HIV1 JRFL gp120 assessed as reduction in CD4/gp 120 complex formation incubated for 1 hr by ELISA
[2] = Inhibition of Acinetobacter baumannii N-terminal ADC-7 cephalosporinase expressed in Escherichia coli BL21(DE3) incubated for 5 mins by UV-vis spectrophotometric method
Histone deacetylase = assay: Inhibition of HDAC (unknown origin) using Fluoro-Substrate Peptide as substrate by fluorescence assay; assay type: protein assay, Homo sapiens
[3] = molecular target: T1, Envelope glycoprotein gp160; assay: Inhibition of HIV1 gp120 assessed as increase in anti-DNP binding to immobilized HIV-1 gp120 incubated for 1 hr by ELISA
[4] = system: Human immunodeficiency virus 1; assay: Antiviral activity against HIV1 infected in human MT2 cells incubated for 5 days; assay type: functional, organism-based; settings: Human immunodeficiency virus 1, MT2, 120 h
[5] = Cytotoxicity against human MT2 cells incubated for 5 days; assay type: cell-based
[6] = Inhibition of HIV1 reverse transcriptase p66/p51 K103N/Y181C mutant infected in human MT2 cells assessed as reduction in viral infection incubated for 5 days
Protease = Protease (Human immunodeficiency virus 1, UniProt Q9YQ12); assay: Inhibition of HIV1 protease using RE(Edans)SGIFLETSK(Dabcyl)R as substrate by fluorescence method
[7] = system: Human immunodeficiency virus 1; assay: Antiviral activity against HIV1 3B infected in human MT2 cells incubated for 5 days by MTT assay; assay type: functional, organism-based; settings: Human immunodeficiency virus 1, 3B, MT2, 120 h

T1 sequence (Q6QLK5 whole entry): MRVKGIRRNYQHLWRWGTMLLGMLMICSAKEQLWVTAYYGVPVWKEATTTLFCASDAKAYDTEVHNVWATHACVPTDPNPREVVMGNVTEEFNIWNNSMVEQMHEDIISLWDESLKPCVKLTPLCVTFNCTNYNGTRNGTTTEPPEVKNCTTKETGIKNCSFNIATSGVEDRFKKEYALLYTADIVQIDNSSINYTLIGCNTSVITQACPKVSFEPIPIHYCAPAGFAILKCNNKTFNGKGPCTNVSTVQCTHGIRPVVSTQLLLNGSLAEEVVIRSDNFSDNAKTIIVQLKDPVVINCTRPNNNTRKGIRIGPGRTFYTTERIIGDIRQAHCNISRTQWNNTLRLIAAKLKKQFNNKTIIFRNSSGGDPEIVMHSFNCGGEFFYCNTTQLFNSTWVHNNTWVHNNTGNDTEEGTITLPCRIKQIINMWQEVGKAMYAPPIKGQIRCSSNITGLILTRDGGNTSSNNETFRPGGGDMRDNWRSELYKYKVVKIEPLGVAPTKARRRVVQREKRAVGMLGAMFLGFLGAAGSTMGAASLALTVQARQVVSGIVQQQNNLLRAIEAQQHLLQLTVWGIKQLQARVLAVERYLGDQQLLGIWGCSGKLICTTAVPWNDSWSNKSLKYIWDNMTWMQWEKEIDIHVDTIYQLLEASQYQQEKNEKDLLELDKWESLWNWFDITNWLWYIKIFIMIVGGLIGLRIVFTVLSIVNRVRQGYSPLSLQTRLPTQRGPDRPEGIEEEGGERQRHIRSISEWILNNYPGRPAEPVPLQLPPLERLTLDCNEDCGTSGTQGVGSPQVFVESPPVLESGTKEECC
Chain of Protease (Q9YQ12 whole entry): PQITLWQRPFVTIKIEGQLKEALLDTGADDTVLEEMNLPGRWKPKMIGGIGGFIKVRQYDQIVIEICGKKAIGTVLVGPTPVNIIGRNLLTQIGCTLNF
Chain of Histone deacetylase 3 (O15379 whole entry): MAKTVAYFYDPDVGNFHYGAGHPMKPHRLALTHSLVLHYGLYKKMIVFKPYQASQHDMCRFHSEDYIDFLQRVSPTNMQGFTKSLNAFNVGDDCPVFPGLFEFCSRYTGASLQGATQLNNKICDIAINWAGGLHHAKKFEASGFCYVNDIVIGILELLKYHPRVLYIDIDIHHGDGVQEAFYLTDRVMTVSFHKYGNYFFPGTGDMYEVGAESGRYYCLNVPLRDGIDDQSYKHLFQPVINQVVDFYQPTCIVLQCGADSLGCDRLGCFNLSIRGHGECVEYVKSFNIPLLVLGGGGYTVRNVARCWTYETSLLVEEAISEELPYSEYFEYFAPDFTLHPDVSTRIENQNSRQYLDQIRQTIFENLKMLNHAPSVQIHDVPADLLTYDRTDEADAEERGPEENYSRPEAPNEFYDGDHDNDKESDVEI

Structure (SMILES): COc1ccnc2[nH]cc(C(=O)C(=O)N3CCN(C(=O)c4ccccc4)C[C@H]3C)c12
pIC50 [1]: 5.06

Structure (SMILES): O=C(Cc1cccs1)N[C@@H](Cn1cc(C(=O)O)nn1)B(O)O
pKi [2]: 7.36

Structure (SMILES): C[C@@H]1CN(C(=O)c2ccccc2)CCN1C(=O)C(=O)c1c[nH]c2nccc(OCCOCCOCCOCCOCCOCCn3cc(COCCOCCOCCOCCNc4ccc([N+](=O)[O-])cc4[N+](=O)[O-])nn3)c12
pIC50 [1]: 4.70
pEC50 [3]: 4.42

Structure (SMILES): Cc1c(Oc2ccccc2OCCn2ccc(=O)[nH]c2=O)cc(Cl)c2ccc(C#N)cc12
pEC50 [4]: 8.21
CC50 at 120 h [5]: > 100000 nM
pEC50 [6]: 6.55

Structure (SMILES): CC(C)CN(C[C@@H](O)[C@H](Cc1ccccc1)NC(=O)O[C@H]1CO[C@H]2OCC[C@H]21)S(=O)(=O)c1ccc(B(O)O)cc1
pKi (Protease): 12.30

Structure (SMILES): Cc1c(Oc2ccccc2OCCn2ccc(=O)[nH]c2=O)cc(N(C)C(=O)CF)c2ccc(C#N)cc12
pEC50 [4]: 6.05
CC50 at 120 h [5]: > 100000 nM

Structure (SMILES): Cc1c(Oc2ccccc2OCCn2ccc(=O)[nH]c2=O)cc(N(C)C(=O)CCl)c2ccc(C#N)cc12
pEC50 [4]: 6.24
CC50 at 120 h [5]: 32000 nM

Continued, in another order:

pIC50 (Histone deacetylase 3): 4.17
Structure (SMILES): O=C(NO)c1cccc(-c2cn(CSc3ccccc3)nn2)c1

IC50 (Histone deacetylase): > 100000 nM
Structure (SMILES): Nc1ccccc1NC(=O)c1ccc(-c2cn(CCc3ccsc3)nn2)cc1

IC50 (Histone deacetylase): > 100000 nM
Structure (SMILES): Nc1ccccc1NC(=O)c1ccc(-c2cn(CCc3cccc([N+](=O)[O-])c3)nn2)s1

pEC50 [4]: 5.80
Structure (SMILES): C=CC(=O)Nc1cc(Oc2ccccc2OCCn2ccc(=O)[nH]c2=O)c(C)c2cc(C#N)ccc12
CC50 at 120 h [5]: 11000 nM

pIC50 [1]: 6.48
pEC50 [3]: 5.95
Structure (SMILES): COc1ccc(-c2ccc(CNC(=O)COCCOCCOCCOCCn3cc(COCCOCCOCCOCCNc4ccc([N+](=O)[O-])cc4[N+](=O)[O-])nn3)o2)c2[nH]cc(C(=O)C(=O)N3CCN(C(=O)c4ccccc4)CC3)c12
pIC50 [7]: 7.89

pIC50 [1]: 6.89
Structure (SMILES): COc1ccc(-c2ccco2)c2[nH]cc(C(=O)C(=O)N3CCN(C(=O)c4ccccc4)CC3)c12
pIC50 [7]: 10.19

pEC50 [4]: 6.25
Structure (SMILES): C=CC(=O)N(C)c1cc(Oc2ccccc2OCCn2ccc(=O)[nH]c2=O)c(C)c2cc(C#N)ccc12
CC50 at 120 h [5]: 32000 nM

— ChEMBL document CHEMBL4321787, “Overview of Recent Strategic Advances in Medicinal Chemistry” (J Med Chem, 2019)
